# Laboratory results: patent publication US20050124626A1, “Novel compounds” (priority 2002, published 2005)
# Where a name gives a salt, the structure may show the parent alone.
# Target: T1, human cloned 5-HT6 receptors (Homo sapiens, UniProt P50406)
# T1 construct: expressed in transfected cells
# Test: 5-HT6 receptor affinity following the procedures outlined in WO98/27081
# Format: binding
# Details: read-out: pKi values at human cloned 5-HT6 receptors (converted)
# From the text: Compounds can be tested following the procedures outlined in WO98/27081.
# T1 sequence (P50406 whole entry): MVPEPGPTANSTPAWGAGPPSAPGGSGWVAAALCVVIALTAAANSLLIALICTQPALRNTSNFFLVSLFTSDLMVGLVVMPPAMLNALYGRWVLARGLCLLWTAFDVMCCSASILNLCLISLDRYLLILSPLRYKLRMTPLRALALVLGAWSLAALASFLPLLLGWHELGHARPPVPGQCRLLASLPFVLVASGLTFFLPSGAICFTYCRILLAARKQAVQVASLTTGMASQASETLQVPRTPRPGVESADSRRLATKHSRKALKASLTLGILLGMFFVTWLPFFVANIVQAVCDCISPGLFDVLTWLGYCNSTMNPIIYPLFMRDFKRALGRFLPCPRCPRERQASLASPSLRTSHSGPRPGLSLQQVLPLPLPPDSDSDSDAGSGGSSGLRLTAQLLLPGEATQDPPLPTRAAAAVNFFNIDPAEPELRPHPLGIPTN
row,Structure (SMILES),Ki [nM]
1,"O=S(=O)(c1ccccc1)c1c[nH]c2c(N3CCNCC3)nccc12 [Example E6, 7-piperazin-1-yl-3-phenylsulfonyl-1H-pyrrolo[2,3-c]pyridine hydrochloride]",< 31.6
2,"O=S(=O)(c1ccccc1F)c1c[nH]c2c(N3CCNCC3)nccc12 [Example E7, 3-(2-Fluorophenyl)sulfonyl-7-piperazin-1-yl-1H-pyrrolo[2,3-c]pyridine hydrochloride]",< 31.6
3,"O=S(=O)(c1cccc(F)c1)c1c[nH]c2c(N3CCNCC3)nccc12 [Example E8, 3-(3-Fluorophenyl)sulfonyl-7-piperazin-1-yl-1H-pyrrolo[2,3-c]pyridine hydrochloride]",< 31.6
4,"Cc1cc(N2CCNCC2)c2ccc(S(=O)(=O)c3ccccc3)cc2n1 [Example E9, 2-Methyl-4-piperazin-1-yl-7-phenylsulfonylquinoline hydrochloride]",< 10
5,"O=S(=O)(c1ccccc1)c1ccnc2c(N3CCNCC3)cccc12 [Example E10, 4-Phenylsulfonyl-8-piperazin-1-yl quinoline]",< 10
6,"O=S(=O)(c1ccccc1)c1ccnc2c(N3CCNCC3)cccc12 [Example E11, 4-Phenylsulfonyl-8-piperazin-1-yl-quinoline hydrochloride]",< 10
7,"Cc1cc(S(=O)(=O)c2ccccc2)c2cccc(N3CCNCC3)c2n1 [Example E12, 2-Methyl-4-phenylsulfonyl-8-piperazin-1-yl-quinoline]",< 10

# The remaining lines, values ahead:
row,Ki [nM],Structure (SMILES)
1,< 10,"Cc1cc(S(=O)(=O)c2ccccc2)c2cccc(N3CCNCC3)c2n1 [Example E13, 2-Methyl-4-phenylsulfonyl-8-piperazin-1-ylquinoline hydrochloride]"
2,< 10,Cc1cc(S(=O)(=O)c2ccccc2F)c2cccc(N3CCNCC3)c2n1 [Example E14]
3,< 10,Cc1cc(S(=O)(=O)c2cccc(F)c2)c2cccc(N3CCNCC3)c2n1 [Example E15]
4,< 10,Cc1cc(S(=O)(=O)c2cccc(Cl)c2)c2cccc(N3CCNCC3)c2n1 [Example E16]
